# Where a SMILES comes first, the peptide text is derived from it. The star is where a group is joined. Cbz = O=C(OCc1ccccc1)*; CH2F = FC*
# What was measured:
# Assay type in all cases: in vivo, mouse
# [1] = test system: caspase-8, caspase-9 and caspase-3; experiment: Caspase-8, caspase-9 and caspase-3 activities in the retina after ON injury (commercial kit); conditions: one day after ON injury, intravitreal Z-VAD
# Description: Two mouse models of RGC death were utilized: optic nerve (ON) injury and N-methyl-D-aspartate (NMDA) retinal excitotoxicity. ON injury leads to RGC death as a result of primary damage to the axons, with its ensuing disruption of retrograde axonal transport (Libby et al., (2005) PLOS GENET 1:17-26) and is used as an RGC death model. In the ON injury model, mice were anesthetized and subjected to severe crush injury at 1-2 mm distance from the eyeball for 15 seconds using cross-action forceps taking special care not to interfere with the blood supply (Levkovitch-Verbin, (2004) EYE 18:1066-1074). Injured mice were randomly divided into 4 groups for treatment: vehicle group (0.5% DMSO and 0.8% cyclodextrin in PBS, n=6), ZVAD group (300 n=6), Nec-1 group (4 mM, n=6), and ZVAD plus Nec-1 group (n=6). Soon after injury, each group received an intravitreal injection (2 μl) with the respective compounds. […]
# In human glaucoma, RGC death has been attributed mainly to apoptosis (Kerrigan et al., (1997), Tatton et al., (2001)). […] The activities of caspase-8, caspase-9 and caspase-3 were measured using a commercially available kit according to the manufacturer's instructions (APT171/131/139; Millipore, Billerica, Mass.).
# Atg5, 7 and 12 = experiment: Atg5, Atg7 and Atg12 expression after ON injury (quantitative RT-PCR); conditions: one day after ON injury; compared with vehicle treatment
# Description: Total RNA extraction, cDNA synthesis and PCR amplification have been performed as previously reported (Kayama et al., (2010) OPHTHALMIC RES 43:79-91). A real-time PCR assay was performed with Prism 7700 Sequence Detection System (Applied Biosystems, Foster City, Calif.). The primers are shown below in Table 1.
# For relative comparison of each gene, the Ct value of real-time PCR data was analyzed with the ΔΔCt method and normalized to an endogenous control ([…].
# To investigate whether autophagy influences RGC death after ON injury, expression of several genes critical for autophagosome formation including Atg5, 7 and 12 was measured by quantitative RT-PCR. […] In contrast, administration of ZVAD plus Nec-1, or Rip3 deficiency suppressed expression of Atg5, 7 and 12 transcripts (FIGS. 9A-9C).
# [2] = test system: retinal ganglion cell axons; experiment: Optic nerve crush model: axon regeneration (βIII-tubulin staining of longitudinal optic nerve sections); conditions: 14 days, intravitreal ZVAD 300 μM and/or Nec-1 4 mM
# Description: Mice were subjected to optic nerve crush surgery. Specifically, animals were anesthetized with an intraperitoneal injection of ketamine (60-80 mg/kg: Phoenix Pharmaceutical, St. Joseph, Mo.) and xylazine (10-15 mg/kg: Bayer, Shawnee Mission, K A). Animals were positioned in a stereotaxic apparatus and a 1-1.5 cm incision was made in the skin above the right orbit. Under microscopic illumination, the lachrymal glands and extraocular muscles were resected to expose 3-4 mm of the optic nerve. The epineurium was slit open along the long axis, and the nerve was crushed 2 mm behind the eye with angled jeweler's forceps (Dumont #5) for 10 seconds, avoiding injury to the ophthalmic artery. Nerve injury was verified by the appearance of a clearing at the crush site, while the vascular integrity of the retina was evaluated by fundoscopic examination. Cases in which the vascular integrity of the retina was in question were excluded from the study. […]
# Axon regeneration was assessed by obtaining longitudinal sections of the optic nerve and counting the number of axons at pre-specified distances from the injury site. […] Axons were counted manually in at least eight longitudinal sections per case at pre-specified distances from the injury site. The number of regenerating axons at various distances are determined as described previously (Leon et al., (2000) J NEUROSCI 20:4615-4626). […]
# ROS = experiment: Protein carbonyl contents in retina after ON injury (ELISA); conditions: one day after ON injury; compared with vehicle group
# Description: It has been reported that RIP kinases control ROS generation during programmed necrosis (Cho et. al., (2009) CELL 137:1112-1123, Zhang et al., (2009) SCIENCE 325:332-336)). To investigate whether ROS play a roll in oxidative retinal damage after ON injury, protein level of carbonyl contents was analyzed using ELISA using the OxiSelect™ Protein Carbonyl ELISA Kit (Cell Biolabs, San Diego, Calif.).
# To investigate the role of autophagy in RGC death after ON injury, we examined the effect of 3-methyladenine (3-MA) on RGCs death after ON injury. 3-MA inhibits autophagosome formation (Seglen and Gordon, (1982) PROC NATL ACAD SCI USA 79:1889-1892)). One day after ON injury, TUNEL assay was performed. […] In addition, the number of Brn3b positive cells and IPL thickness were also analyzed. […] To investigate whether ROS play a role in oxidative retinal damage after ON injury, protein level of carbonyl contents was analyzed using an ELISA kit (Cell Biolabs, San Diego, Calif.) according to the manufacturer's instructions. One day after ON injury, carbonyl contents decreased in the 3-MA treated group compared with untreated control (FIG. 10F).
smiles,measurement,setting,value
"COC(=O)CC(NC(=O)C(C)NC(=O)C(NC(=O)OCc1ccccc1)C(C)C)C(=O)CF (stereo not drawn) [Z-VAD, Benzyloxycarbonyl-Val-Ala-Asp(OMe)-fluoromethylketone] (Cbz-Val-Ala-Asp(OMe)-CH2F; configuration not given here)",decrease of the activities of the caspases,[1],70%
same,Atg12 expression,"Atg5, 7 and 12",further increased
same,axon regeneration (βIII-tubulin axon staining beyond injury site),[2],minimal effects on axon regeneration
same,"carbonyl contents (protein level, ELISA)",ROS,dramatically increased

# Reference: patent US10617735B2, “Methods and compositions for preserving retinal ganglion cells” (Massachusetts Eye and Ear Infirmary, priority 2010, dated 2020)
